The values below come from PubChem BioAssay (NCI).

Several values for one entry are separate records, joined by “and”; a condition that tells them apart may be missing. Equal entries are not always repeated.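 These data come from cells grown in 96-well plates and exposed to compound for 48 hours at five concentrations. At the GI50, growth is halved. Definition used: TGI = concentration required for complete inhibition of growth.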 Where only a bound is given, the exact number is not on record here.

Common to all, as to assay: DTP human tumour cell line panel, 48 h
In assay [1] the test system is RXF 393 renal.
Assay [2] relates to SNB-19 CNS.
Assay [3] has as its system CAKI-1 renal.
Assay [4] deals with RPMI-8226 leukemia.
The test system of assay [5] is A549 NSCLC.
In assay [6] the test system is PC-3 prostate.
Assay [7] concerns SK-MEL-2 melanoma.
Assay [8] concerns M14 melanoma.
Assay [9] deals with COLO 205 colon.
Assay [10] has as its system SK-OV-3 ovarian.

`COc1ccc(-n2cc(-c3ccc(F)cc3)[nH]c2=O)cc1OC`: the GI50 (in general, the concentration that inhibits growth by half) in [1] is > 100000 nM; in assay [2], > 100 µM; in assay [3] it was > 100 µM; in [4], > 100 µM; in [5], > 100 µM; in assay [6] it was > 100 µM. Besides, the GI50 in assay [7] is > 100000 nM; in assay [8], > 100 µM; in assay [9], > 100000 nM; in [10] it was > 100 µM. In addition, the concentration for total growth inhibition (TGI) in assay [1], in assay [2], in [3], in assay [4], in [5] and in assay [6] was > 100 µM throughout. Besides, the TGI in assay [7], in [8], in assay [9] and in assay [10] was > 100 µM throughout.
As for `COc1cc2c(cc1OC)-c1c(c3ccc([N+](=O)[O-])cc3c(=O)n1CCCBr)C2=O`, the GI50 in [1] is 44300 nM; in [2], 33.3 µM; in assay [3] it was 0.513 µM; in assay [4], 3.33 µM; in assay [5] it was 28.9 µM; in [6] it was 59 µM. Moreover, the GI50 in assay [7] is > 100000 nM; in [8] it was 2.39 µM; in [9], > 100000 nM; in [10], 60.5 µM. Further, the TGI in assay [1], in [2], in assay [3], in assay [4], in [5] and in [6] was > 100 µM throughout. Besides, the concentration for total growth inhibition (TGI) (usually the concentration at which net growth stops) in assay [7] is > 100 µM; in [8] it was 26.7 µM; in assay [9] it was > 100 µM; in [10], > 100 µM.
In the case of `NC1=C(O)/C(=N/NS(=O)(=O)c2ccccc2)C(c2cccc(Cl)c2)O1` (stereo not given), the TGI is 29.6 µM in [1]; > 100 µM in assay [2]; > 58.4 µM in [3]; > 47.4 µM in assay [4]; > 100 µM in assay [5]; 54.2 µM in assay [6]. Also, the TGI in assay [7] was 66 µM; in [8], 67.6 µM; in [9] it was 30 µM; in assay [10] it was > 100 µM.
Take `CC/C(=C(/c1ccc(Cl)cc1)c1ccc(OCCCN(C)C)cc1)c1ccc(OC)cc1`: the GI50 was 1160 nM in assay [1]; 1.88 µM in [2]; 5.55 µM in assay [3]; 1.17 µM in [4]; 3.88 µM in assay [5]; 1.12 µM in [6]. Moreover, the GI50 was 8010 nM in assay [7], 0.966 µM in assay [8], 915 nM in assay [9] and 10.2 µM in assay [10]. Moreover, the concentration for total growth inhibition (TGI) in assay [1] is 3.45 µM; in assay [2] it was 5.78 µM; in [3], 12.5 µM; in assay [4], 2.54 µM; in [5], 10.7 µM; in assay [6] it was 2.71 µM. The total growth inhibition concentration (TGI) was found to be 15.6 µM in assay [7], 1.92 µM in assay [8], 1.77 µM in assay [9] and 17.5 µM in [10].
Turning to `Cc1cnc2n(c1=O)Cc1ccccc1CO2`, the GI50 in assay [1] is 15200 nM; in assay [2] it was 21.7 µM; in assay [3] it was 16.9 µM; in assay [4], 13.1 µM; in assay [5], 28.7 µM; in [6], 18.7 µM. Further, the GI50 in assay [7] is 568 nM; in assay [8] it was 14.5 µM; in [9], 17100 nM; in assay [10], 41 µM. Further, the TGI was 36.8 µM in assay [1]; 61.6 µM in assay [2]; 32.5 µM in assay [3]; 41 µM in assay [4]; > 100 µM in [5]; 43.7 µM in assay [6]. In addition, the TGI in [7] was 2.04 µM; in assay [8], 29.1 µM; in [9], 37.1 µM; in assay [10] it was > 100 µM.
`CN(CC(=O)O)Cc1c[nH]c2ccccc12`: the TGI in [1], in [2], in assay [3], in [4], in assay [5] and in assay [6] was > 100 µM throughout. Further, the TGI in assay [7], in assay [8], in assay [9] and in assay [10] was > 100 µM in each case.
Take `COc1nc(C(Cl)(Cl)Cl)c(Cl)c(OC)c1Cl`: the total growth inhibition concentration (TGI) in assay [1] was > 55.1 µM and 71.8 µM; in assay [2], > 59.3 µM and 59.4 µM; in assay [3], > 72.9 µM and 74.6 µM; in [4], > 62.9 µM and 112 µM; in [5], > 88.9 µM and 77.8 µM; in assay [6], 73.6 µM. The TGI was > 31.6 µM and 70.8 µM in [7]; > 83.7 µM and 74.5 µM in assay [8]; > 65.1 µM and 80 µM in [9]; 26.9 µM in assay [10]. The GI50 is > 40.8 µM in [2]; > 46 µM in assay [3]; > 41.1 µM in [4]; > 52.5 µM in [5]; > 52 µM in assay [8]; > 64.2 µM in assay [10].
In the case of `CCc1cc(Cc2cc(CC)cc(C(C)(C)C)c2O)c(O)c(C(C)(C)C)c1`, the GI50 in assay [1] is 1810 nM; in [2], 3.13 µM; in assay [3] it was 1.92 µM; in assay [4], 3.35 µM; in assay [5], 3.18 µM; in assay [6], 3.86 µM. Also, the GI50 in assay [7] was 2630 nM; in [8], 3.63 µM; in assay [9], 1890 nM; in assay [10] it was 3.81 µM. The concentration for total growth inhibition (TGI) in assay [1] was 4.98 µM; in [2], 11.8 µM; in [3], 5.75 µM; in assay [4], 28.4 µM; in assay [5] it was 13.2 µM; in assay [6], 14.7 µM. In addition, the total growth inhibition concentration (TGI) came to 7.08 µM in [7], 14.4 µM in [8], 3.56 µM in [9] and 13.2 µM in assay [10].
For the molecule `COc1ccc2c(c1)cn1c3ccc(OC)cc3[nH]c(=O)c21`, the concentration for 50% growth inhibition (GI50) is 25.7 nM in assay [1]; < 0.0405 µM in assay [2]; < 0.01 µM in assay [3]; 0.0253 µM in assay [4]; < 0.0205 µM in assay [5]; < 0.0154 µM in assay [6]. Moreover, the GI50 is 57.4 nM in [7], 0.027 µM in assay [8], < 17.5 nM in [9] and < 0.0192 µM in [10]. Moreover, the TGI in assay [1] is 1.79 µM; in [2], 7.36 µM; in assay [4], 0.0984 µM; in assay [5], 1.33 µM; in [6], 1.59 µM; in assay [7] it was 1.66 µM. Besides, the concentration for total growth inhibition (TGI) in assay [8] stood at 1.4 µM; in assay [9] it was 0.0294 µM; in [10] it was 4.48 µM.
